Where a SMILES comes first, the peptide text is derived from it. Bridges are numbered along the chain shown (N, C = ends). [ ]: non-standard residue; d: D form. The star is where a group is joined. hPhe(3-Cl-4-CF3) = N[C@@H](CCc1ccc(C(F)(F)F)c(Cl)c1)C(=O)O; NPrPhe(4-CF3) = CCCN[C@@H](Cc1ccc(C(F)(F)F)cc1)C(=O)O; NPrPhe(4-Me) = CCCN[C@@H](Cc1ccc(C)cc1)C(=O)O; NMeGly(cPent) = CN[C@H](C(=O)O)C1CCCC1; Pro(4,4-F2) = O=C(O)[C@@H]1CC(F)(F)CN1; Aze(3S-Me) = C[C@H]1CN[C@@H]1C(=O)O; NMeD = CN[C@@H](CC(=O)O)C(=O)O; NMeL = CN[C@@H](CC(C)C)C(=O)O; Morpholide = C1CN(*)CCO1; NMeA = CN[C@@H](C)C(=O)O; Ac5c = NC1(C(=O)O)CCCC1; Aze = O=C(O)[C@@H]1CCN1; Sar = CNCC(=O)O

The values below come from patent EP4603105A1, “PHARMACEUTICAL COMPOSITION CONTAINING CYCLIC COMPOUND HAVING SELECTIVE KRAS INHIBITORY EFFECT AGAINST HRAS AND NRAS” (CHUGAI SEIYAKU KABUSHIKI KAISHA, priority 2022, dated 2024).

One assay deals with HRAS wild-type protein (Homo sapiens, UniProt P01112). In words: Binding to HRAS by surface plasmon resonance (SPR), KD and KD ratio to KRAS. The gist of the method: (§1)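 Measured at 30°C: SPR with GDP-loaded, E. coli-expressed biotin-Avi RAS captured (~100–300 RU), ascending 75 s compound injections, HBS pH 7.4 with GDP, MgCl2, 4% DMSO. KD from 1:1 fit.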
Background: SPR reads the build-up and loss of mass on a sensor chip optically.

Assay [1] has as its target GDP-bound NRAS wild-type protein (Homo sapiens, UniProt P01111). Put plainly: Binding to NRAS by surface plasmon resonance (SPR), KD and KD ratio to KRAS. The gist of the method:
as §1

The subject of assay [2] is human lung cancer strain NCI-H441. It counts as cell-based. The gist of the method: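 Signal came from […] measured per well once the reagent was added. Beforehand, cells were cultured at 37°C and 5% carbon dioxide on a compound series serially diluted in dimethyl sulfoxide.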
Setting [3] is: ratio of KD value for HRAS wild-type protein to KD value for KRAS (SPR).
The mark [4] stands for this setting: ratio of KD value for GDP-bound NRAS wild-type protein to KD value for KRAS (SPR).
Where [5] appears, read: ratio of the KD value with respect to HRAS wild-type protein to the KD value with respect to KRAS.
Where [6] appears, read: ratio of the KD value with respect to GDP-bound NRAS wild-type protein to the KD value with respect to KRAS.
The mark [7] stands for this setting: ratio of KD for HRAS wild-type protein to KD for KRAS.
[8] abbreviates: ratio of KD for GDP-bound NRAS wild-type protein to KD for KRAS.

GDP-bound NRAS wild-type protein, sequence (P01111 whole entry): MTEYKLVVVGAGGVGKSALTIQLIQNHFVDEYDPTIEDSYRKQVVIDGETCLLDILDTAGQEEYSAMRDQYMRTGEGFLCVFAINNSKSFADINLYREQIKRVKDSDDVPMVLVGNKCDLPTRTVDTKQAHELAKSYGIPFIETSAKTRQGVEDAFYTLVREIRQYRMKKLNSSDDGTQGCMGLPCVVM
HRAS wild-type protein, sequence (P01112 whole entry): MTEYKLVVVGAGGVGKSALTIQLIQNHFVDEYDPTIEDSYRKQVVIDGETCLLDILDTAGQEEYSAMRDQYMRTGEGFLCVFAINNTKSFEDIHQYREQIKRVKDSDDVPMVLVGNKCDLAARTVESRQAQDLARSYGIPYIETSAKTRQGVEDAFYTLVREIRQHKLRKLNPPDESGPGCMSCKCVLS

By IC50 is commonly meant the concentration that inhibits the measured activity by half. A lower IC50 goes with inhibition by little substance. In the case of `CC[C@H](C)[C@@H]1NC(=O)[C@H](CC2CC2)N(C)C(=O)C[C@@H](C(=O)N(C)CC)N(C)C(=O)[C@H](C2CCCC2)N(C)C(=O)C2(CCC2)NC(=O)[C@@H]2C[C@H](C)CN2C(=O)[C@H](CCc2cc(F)c(C(F)(F)F)c(F)c2)NC(=O)CN(C)C(=O)[C@H](Cc2ccc(C(F)(F)F)cc2)N2CC/C=C\C[C@@H](C2=O)N(C)C(=O)CN(C)C1=O` [PP1537], on HRAS wild-type protein (setting [3]), the “HRAS /KRAS” value is “A (a compound having 10 or more and less than 20 is denoted as A)”. In addition, in assay [1] (setting [4]), the “NRAS /KRAS” value is given as “AA (a compound having 20 or more is denoted as AA)”. The compound further showed a half-inhibitory concentration (IC50) in assay [2] of 7.9 nM.

Regarding `CCO[C@@H]1C[C@H]2C(=O)NC3(CC(C)(C)C3)C(=O)N(C)[C@@H](C(CC)CC)C(=O)N(C)[C@H](C(=O)N3CCCC3)CC(=O)N(C)[C@@H](C)C(=O)N[C@@H]([C@@H](C)CC)C(=O)N(C)CC(=O)N(C)[C@H]3C/C=C\CCN(C3=O)[C@@H](Cc3ccc(C(F)(F)F)cc3)C(=O)N(C)CC(=O)N[C@@H](CCc3ccc(Cl)c(Cl)c3)C(=O)N2C1` [PP2178], the “HRAS /KRAS” value on HRAS wild-type protein (setting [5]) was “A (a compound having 10 or more and less than 20 is denoted as A)”. The “NRAS /KRAS” value in assay [1] (setting [6]) is reported as “AA (a compound having 20 or more is denoted as AA)”. The compound further came in with a concentration for half-maximal inhibition (IC50) in assay [2] of 35.9 nM.

`CCO[C@@H]1C[C@H]2C(=O)NC3(CCC3)C(=O)N(C)[C@@H](C3CCCC3)C(=O)N(C)[C@H](C(=O)N(C)C)CC(=O)N(C)[C@@H](CC3CCCC3)C(=O)N[C@@H]([C@@H](C)CC)C(=O)N(C)CC(=O)N(C)[C@H]3C/C=C\CCN(C3=O)[C@@H](Cc3ccc(F)cc3)C(=O)N(C)CC(=O)N[C@@H](CCc3cc(F)c(C(F)(F)F)c(F)c3)C(=O)N2C1` [PP1531]: the “HRAS /KRAS” value on HRAS wild-type protein (setting [3]) is “B (a compound having 3 or more and less than 10 is denoted as B)”. Besides, in assay [1] (setting [4]), the “NRAS /KRAS” value is “A (a compound having 10 or more and less than 20 is denoted as A)”. This compound also showed an IC50 in assay [2] of 13.9 nM.

With `CC[C@H](C)[C@@H]1NC(=O)[C@@H]2CCC/C=C/c3ccc(cc3)C[C@@H](C(=O)N(C)CC(=O)N[C@@H](CCc3ccc(Cl)c(Cl)c3)C(=O)N3C[C@H](OC(C)C)C[C@H]3C(=O)NC3(CC(C)(C)C3)C(=O)N(C)[C@@H](C3CCCC3)C(=O)N(C)[C@H](C(=O)N3CCCC3)CC(=O)N2C)N2CC/C=C\C[C@@H](C2=O)N(C)C(=O)CN(C)C1=O` [PP2596], the “HRAS /KRAS” value on HRAS wild-type protein (setting [7]) is “A (a compound having 10 or more and less than 20 is denoted as A)”. Further, in assay [1] (setting [8]), the “NRAS /KRAS” value was “A (a compound having 10 or more and less than 20 is denoted as A)”. In assay [2], this compound gave an IC50 of 13.7 nM.

For the compound `CCCN(C)C(=O)[C@@H]1CC(=O)N(C)[C@@H](COCC)C(=O)N[C@@H]([C@@H](C)CC)C(=O)N(C)CC(=O)N(C)[C@H]2C/C=C\CCN(C2=O)[C@@H](Cc2ccc(C(F)(F)F)cc2)C(=O)N(C)CC(=O)N[C@@H](CCc2ccc(C(F)(F)F)c(OC)c2)C(=O)N2C[C@H](OCC)C[C@H]2C(=O)NC2(CC(C)(C)C2)C(=O)N(C)[C@@H](C2CCCC2)C(=O)N1C` [PP2012], on HRAS wild-type protein (setting [5]), the “HRAS /KRAS” value is “A (a compound having 10 or more and less than 20 is denoted as A)”. The “NRAS /KRAS” value in assay [1] (setting [6]) was “AA (a compound having 20 or more is denoted as AA)”. In assay [2], this compound had an IC50 of 11.6 nM.

Consider `CC[C@H](C)[C@@H]1NC(=O)[C@H](CC(C)C)N(C)C(=O)C[C@@H](C(=O)N2CCOCC2)N(C)C(=O)[C@H](C2CCCC2)N(C)C(=O)C2(CCCC2)NC(=O)[C@@H]2CCCN2C(=O)[C@H](CCc2ccc(C(F)(F)F)c(Cl)c2)NC(=O)CN(C)C(=O)[C@H](Cc2ccc(C(F)(F)F)cc2)N2CC/C=C\C[C@@H](C2=O)N(C)C(=O)CN(C)C1=O` [PP0463], for which, on HRAS wild-type protein (setting [5]), the “HRAS /KRAS” value is “A (a compound having 10 or more and less than 20 is denoted as A)”. Also, in assay [1] (setting [6]), the “NRAS /KRAS” value is “A (a compound having 10 or more and less than 20 is denoted as A)”. In addition, 26.3 nM corresponded to half-maximal inhibition in assay [2] (IC50).

In the case of `CCO[C@@H]1C[C@H]2C(=O)NC3(CC(C)(C)C3)C(=O)N(C)[C@@H](C3CCCC3)C(=O)N(C)[C@H](C(=O)N(C)CC)CC(=O)N(C)[C@@H](CC(C)C)C(=O)N[C@@H]([C@@H](C)CC)C(=O)N(C)CC(=O)N(C)[C@H]3C/C=C\CCN(C3=O)[C@@H](Cc3ccc(C(F)F)cc3)C(=O)N(C)CC(=O)N[C@@H](CCc3ccc(Cl)c(Cl)c3)C(=O)N2C1` [PP2827], the “HRAS /KRAS” value at HRAS wild-type protein (setting [7]) is “B (a compound having 3 or more and less than 10 is denoted as B)”. Moreover, the “NRAS /KRAS” value in assay [1] (setting [8]) was “A (a compound having 10 or more and less than 20 is denoted as A)”. This compound also came in with an IC50 in assay [2] of 21 nM.

As to `CCC[C@H]1C(=O)N[C@@H]([C@@H](C)CC)C(=O)N2CCC[C@H]2C(=O)N(C)[C@H]2C/C=C\CCN(C2=O)[C@@H](Cc2ccc(C(F)(F)F)cc2)C(=O)N(C)CC(=O)N[C@@H](CCc2ccc(C(F)(F)F)c(OC)c2)C(=O)N2C[C@H](OCC)C[C@H]2C(=O)N(C)C2(CCC2)C(=O)N(C)[C@@H](C(CC)CC)C(=O)N(C)[C@H](C(=O)N(C)C)CC(=O)N1C` [PP2317], the “HRAS /KRAS” value at HRAS wild-type protein (setting [5]) is “A (a compound having 10 or more and less than 20 is denoted as A)”. The “NRAS /KRAS” value in assay [1] (setting [6]) is “A (a compound having 10 or more and less than 20 is denoted as A)”. For the same compound, in assay [2], it took 12.5 nM to reach half-maximal inhibition (IC50).

Turning to `CCCN1C(=O)[C@@H]2[C@@H](C)CN2C(=O)[C@H](C)N(C)C(=O)[C@H]([C@@H](C)CC)NC(=O)[C@H](CC(C)C)N(C)C(=O)C[C@@H](C(=O)N2CCOCC2)N(C)C(=O)[C@H](C2CCCC2)N(C)C(=O)C2(CCCC2)NC(=O)[C@@H]2CCCN2C(=O)[C@H](CCc2ccc(C(F)(F)F)c(Cl)c2)NC(=O)CN(C)C(=O)[C@@H]1Cc1ccc(C)cc1` [PP0138] ([NMeL]I[NMeA][Aze(3S-Me)][NPrPhe(4-Me)][Sar][hPhe(3-Cl-4-CF3)]P[Ac5c][NMeGly(cPent)][NMeD]-Morpholide; lactam N-11), the “HRAS /KRAS” value on HRAS wild-type protein (setting [7]) was “C (A compound having a KD ratio of 0.1 or more and less than 3 is denoted as C)”. In assay [1] (setting [8]), the “NRAS /KRAS” value is “C (A compound having a KD ratio of 0.1 or more and less than 3 is denoted as C)”. This compound returned an IC50 in assay [2] of 20.6 nM.

Take `CCC[C@H]1C(=O)N[C@@H]([C@@H](C)CC)C(=O)N(C)CC(=O)N(C)[C@H]2C/C=C\CCN(C2=O)[C@@H](Cc2ccc(C)cc2)C(=O)N(C)CC(=O)N[C@@H](CCc2ccc(Cl)c(Cl)c2)C(=O)N2CCCCC[C@H]2C(=O)NC2(CC(C)(C)C2)C(=O)N(C)[C@@H](C(CC)CC)C(=O)N(C)[C@H](C(=O)N(C)C)CC(=O)N1C` [PP2962]: the “HRAS /KRAS” value on HRAS wild-type protein (setting [7]) is “A (a compound having 10 or more and less than 20 is denoted as A)”. Besides, the “NRAS /KRAS” value in assay [1] (setting [8]) is reported as “AA (a compound having 20 or more is denoted as AA)”. Moreover, it took 39.2 nM to reach half-maximal inhibition in assay [2] (IC50).

Consider `CCCN1C(=O)[C@@H]2CCN2C(=O)[C@H](C)N(C)C(=O)[C@H]([C@@H](C)CC)NC(=O)[C@H](CC(C)C)N(C)C(=O)C[C@@H](C(=O)N(C)C)N(C)C(=O)[C@H](C2CCCC2)N(C)C(=O)C2(CCCC2)NC(=O)[C@@H]2CC(F)(F)CN2C(=O)[C@H](CCc2ccc(C(F)(F)F)c(Cl)c2)NC(=O)CN(C)C(=O)[C@@H]1Cc1ccc(C(F)(F)F)cc1` [PP0436] ([NMeL]I[NMeA][Aze][NPrPhe(4-CF3)][Sar][hPhe(3-Cl-4-CF3)][Pro(4,4-F2)][Ac5c][NMeGly(cPent)][NMeD]-NMe2; lactam N-11), for which the “HRAS /KRAS” value at HRAS wild-type protein (setting [5]) was “C (A compound having a KD ratio of 0.1 or more and less than 3 is denoted as C)”. Moreover, in assay [1] (setting [6]), the “NRAS /KRAS” value is “C (A compound having a KD ratio of 0.1 or more and less than 3 is denoted as C)”. The compound also came in with a 50% inhibitory concentration (IC50) in assay [2] of 1 nM.
